From patent US9512075B2 (OKAYAMA UNIVERSITY, priority 2012, dated 2016)
In brackets after ≈: the same amount, converted by molar mass. Like-named read-outs stand apart in the source and are kept apart here.

Columns and labels:
Assay type in all cases: cell-based
[1] = tested on: Enterococcus faecalis NCTC12201 strain (vancomycin-resistant Enterococcus: VRE); assay: MIC for Enterococcus faecalis NCTC12201 strain (VRE); settings: read-out: MIC Enterococcus faecalis NCTC 12201 (VRE)
[2] = tested on: Escherichia coli K-12 strain; assay: MIC for Escherichia coli K-12 strain; settings: Escherichia coli, K12STRAIN; K-12 strain; regular bouillon medium, 37° C. overnight, turbidity; read-out: MIC Escherichia coli K12
[3] = tested on: Staphylococcus aureus MRSA No. 17 (methicillin-resistant Staphylococcus aureus: MRSA); assay: MIC for Staphylococcus aureus MRSA No. 17; settings: read-out: MIC Straphyrococcus aureus MRSA No. 17 (MRSA)
[4] = tested on: Escherichia coli BE1121 strain; assay: MIC for Escherichia coli BE1121 strain; settings: Escherichia coli, BE1121STRAIN; BE1121 strain; regular bouillon medium, 37° C. overnight, turbidity; read-out: MIC Escherichia coli BE1121
[5] = tested on: Clostridium difficile JCM1296 strain; assay: microbe, parasite or virus in culture; settings: Clostridioides difficile, JCM1296, read-out: MIC Clostridium difficile JCM1296
[6] = tested on: Staphylococcus aureus 209P strain; assay: MIC for Staphylococcus aureus 209P strain; settings: Staphylococcus aureus; 209P strain; regular bouillon medium, 37° C. overnight, turbidity; read-out: MIC Straphyrococcus aureus 209P
[7] = tested on: Enterococcus faecalis 5038 strain; assay: MIC for Enterococcus faecalis 5038 strain; settings: read-out: MIC Enterococcus faecalis 5038
[8] = tested on: Staphylococcus aureus Smith strain; assay: MIC for Staphylococcus aureus Smith strain; settings: read-out: MIC Straphyrococcus aureus Smith
[9] = tested on: Clostridium perfringens PB6K strain; assay: microbe, parasite or virus in culture; settings: Clostridium perfringens, PB6KSTRAIN, read-out: MIC Clostridium perfringens PB6K, PB6K strain; CD medium, 37° C. overnight, 10% CO2-containing anaerobic conditions
[10] = NCTC12201 strain (VRE), Heart Infusion Broth medium, 37° C. overnight, turbidity
[11] = MRSA No. 17, regular bouillon medium, 37° C. overnight, turbidity
[12] = 5038 strain, Heart Infusion Broth medium, 37° C. overnight, turbidity
[13] = Smith strain, regular bouillon medium, 37° C. overnight, turbidity

Structure (SMILES)	MIC [1, 10] [µg/mL]	MIC [2] [µg/mL]	MIC [3, 11] [µg/mL]	MIC [4] [µg/mL]	MIC [5] [µg/mL]	MIC [6] [µg/mL]	MIC [7, 12] [µg/mL]	MIC [8, 13] [µg/mL]	MIC [9] [µg/mL]	MIC ([1]; NCTC12201|VRE) [µg/mL]	MIC ([3]; MRSA) [µg/mL]	MIC ([7]; 5038STRAIN) [µg/mL]	MIC [8] [µg/mL]	MIC [1] [µg/mL]
CCCCCCCCNC(=O)c1c(O)c2cc(F)ccc2oc1=O [B022, 6-fluoro-3-(octylaminocarbonyl)-4-hydroxycoumarin]	256 (≈ 763 µM)	256 (≈ 763 µM)	256 (≈ 763 µM)	128 (≈ 382 µM)	16 (≈ 47.7 µM)	128 (≈ 382 µM)	256 (≈ 763 µM)	128 (≈ 382 µM)	64 (≈ 191 µM)					
CCCCCCCCCCSCC(=O)c1c(O)c2ccccc2oc1=O [B023]		256 (≈ 680 µM)		2 (≈ 5.31 µM)	< 0.125	1 (≈ 2.66 µM)			< 0.125	0.25 (≈ 0.664 µM)	1 (≈ 2.66 µM)	0.25 (≈ 0.664 µM)	0.25 (≈ 0.664 µM)	
CCCCc1ccc(COCC(=O)c2c(O)c3ccccc3oc2=O)cc1 [B024, 3-(4-butylphenylmethoxyl)acetyl-4-hydroxycoumarin]		256 (≈ 699 µM)		2 (≈ 5.46 µM)	0.25 (≈ 0.682 µM)	4 (≈ 10.9 µM)			1 (≈ 2.73 µM)		64 (≈ 175 µM)	2 (≈ 5.46 µM)	8 (≈ 21.8 µM)	2 (≈ 5.46 µM)
CCCCCCCCCCCCNC(=O)c1c(O)c2ccccc2oc1=O [B025, 3-(dodecylaminocarbonyl)-4-hydroxycoumarin]	1 (≈ 2.68 µM)	256 (≈ 685 µM)	8 (≈ 21.4 µM)	256 (≈ 685 µM)	4 (≈ 10.7 µM)	8 (≈ 21.4 µM)	2 (≈ 5.35 µM)	2 (≈ 5.35 µM)	4 (≈ 10.7 µM)					
CCCCCCCCCCSCC(=O)c1c(O)c2cc(F)ccc2oc1=O [B027]		256 (≈ 649 µM)		4 (≈ 10.1 µM)	< 0.125	2 (≈ 5.07 µM)			0.25 (≈ 0.634 µM)	< 0.125	1 (≈ 2.53 µM)	0.25 (≈ 0.634 µM)	0.25 (≈ 0.634 µM)	
CCCCCCCCCCOCC(=O)c1c(O)c2cc(Cl)ccc2oc1=O [B028, 3-decyloxyacetyl-6-chloro-4-hydroxycoumarin]	256 (≈ 648 µM)	256 (≈ 648 µM)	256 (≈ 648 µM)	256 (≈ 648 µM)	0.25 (≈ 0.633 µM)	128 (≈ 324 µM)	256 (≈ 648 µM)	8 (≈ 20.3 µM)	0.25 (≈ 0.633 µM)					
CCCCCCCCCCOCC(=O)c1c(O)c2cc(C)ccc2oc1=O [B029, 3-decyloxyacetyl-6-methyl-4-hydroxycoumarin]	2 (≈ 5.34 µM)	256 (≈ 684 µM)	256 (≈ 684 µM)	256 (≈ 684 µM)	< 0.125	256 (≈ 684 µM)	8 (≈ 21.4 µM)	4 (≈ 10.7 µM)	< 0.125					
CCCCCCCCOCC(=O)c1c(O)c2ccccc2oc1=O [B030, 3-octyloxyacetyl-4-hydroxycoumarin]		128 (≈ 385 µM)		2 (≈ 6.02 µM)	0.25 (≈ 0.752 µM)	4 (≈ 12 µM)			0.25 (≈ 0.752 µM)		1 (≈ 3.01 µM)	2 (≈ 6.02 µM)	2 (≈ 6.02 µM)	4 (≈ 12 µM)
